3 molecules from US12396996B2, “Compounds, pharmaceutical compositions, and methods of their use in reversing cancer chemoresistance” (priority 2019, dated 2025) can be followed below.

Molecules are shown by their SMILES.

In the assay the test system is HMLE-SNAIL spheroids. As to the kind of experiment: 3-D tumor spheroid assay (Sytox/DAPI staining). Particulars: Sytox staining. Format: cell-based, human. From the text: FIGS. 1F-1I show the results of a 3-D tumor spheroid assay formed by the chemotherapy-resistant breast cancer cell line, HMLE-SNAIL. […] Tumor spheroids are a model of real in vivo tumors, as they form a 3-D cell mass in which the hypoxic and often nutrient depleted microenvironment at the center of the tumor is enriched with mesenchymal, chemotherapy-resistant TIC cells. […] By staining spheroids with Sytox, which stains dead cells green, and DAPI, which stains the nuclei of all cells (living or dead), total fraction of dead cells is calculated. Also, the location of dead cells within the sphere is visualized with Sytox (green) staining. The results of FIGS. 1F-1I indicate that chaetocin a selective and potent killer of inner cells of the spheroids, enriched with mesenchymal, chemotherapy-resistant TIC cells, compared to other compounds tested. FIGS. 1J-1K show the results of a tumorsphere assay performed with TICs grown on serum-free, non-adherent culture conditions. […] The results of FIGS. 1J-1K indicate that chaetocin is effective in eliminating TICs in a dose dependent-manner.
To determine whether chaetocin affects TIC death in a tumor-like environment, 3-D tumor spheroid assays were performed in the presence or absence of chaetocin. Tumor spheroids are a model of a real tumor, as they form a 3-D cell mass similar to tumors in vivo. The local microenvironment of a spheroid recapitulates many of the in vivo properties of tumor. Importantly, the hypoxic and often nutrient depleted microenvironment at the center of the tumor is favorable for converting epithelial, non-TIC, chemotherapy-sensitive cancer cells into mesenchymal, TIC-rich, chemotherapy-resistant cells. […] Pharmacological agents were added and cell viability was calculated by staining cells with Sytox, which stains dead cells green, and DAPI, which stains the nuclei of all cells (living or dead). to provide the total cell number. Using this method, the total fraction of dead cells was calculated and compared between different drug conditions. More importantly, the location of dead cells within the sphere is visualized with Sytox (green) staining. FIGS. 1G-1I show fluorescence images of tumor spheroids under control conditions (no treatment; FIG. 1G), under treatment with various experimental chemotherapeutic agents (Y-27632, LY-450139, and IWP-L6 (Wnt); FIG. 1H), and with chaetocin treatment (FIG. 1I). […] This family of kinases are thought to be important for survival of TIC cells. IWP-L6 is an inhibitor of Wnt pathway—a pathway important for TIC cell survival and formation. LY-450139 is a NOTCH pathway inhibitor. NOTCH is also important for TIC cell viability and survival. […]
Consider `O=C(CSc1nc2c(c(=O)n1-c1ccccc1)SCC2)Nc1ccc(-c2ccccc2)cn1` [IWP-L6], for which the “location of dead cells within spheroid” value is on record as “mostly result in death of cells on the exterior of the spheroid”.
For the molecule `CC(C)[C@H](O)C(=O)N[C@@H](C)C(=O)N[C@@H]1C(=O)N(C)CCc2ccccc21` [LY-450139], the “location of dead cells within spheroid” value was “mostly result in death of cells on the exterior of the spheroid”.
On to `C[C@@H](N)[C@H]1CC[C@H](C(=O)Nc2ccncc2)CC1` [Y-27632], for which the “location of dead cells within spheroid” value was “mostly result in death of cells on the exterior of the spheroid”.
